Results reported in US8691875B2, “Solid forms of tacedinaline” (Broad Institute, Inc., priority 2011, dated 2014).
Converted amounts (≈) assume the structure as drawn. “Also recorded” adds a separate entry of the source. Read-outs that look alike come from different tables or passages of the source.

What was measured:
[1] = Solubility study of crystalline forms in water (slurry, UV); assay type: physicochemical; conditions: for Solubility: slurry stirred 24 hours at ambient temperature (23° C.), UV
Method: Analysis of the relative solubilities of crystalline tacedinaline Forms A, B, and D was performed as follows.
The starting material was Form B. The only peak in the spectrum, at approximately 267 nm, was used. The UV parameters were: scan range: 190-800 nm; 480 nm/min; 1 cm cuvette.
Each sample was placed in water to give a slurry. The slurries were stirred at ambient temperature for 24 hours. The temperature in the laboratory was monitored and found to be steady at 23° C. After 24 hours, the vials containing the slurries were centrifuged for about 5 minutes. The mother liquors were decanted and filtered through 0.2 micron filters, then diluted appropriately and analyzed by UV. Solids were dried under dry air purges and analyzed by XRPD.

[2] = Accelerated stability studies, 40° C. and 75% relative humidity, XRPD; assay type: physicochemical
Method: Accelerated stability studies were performed on samples of crystalline tacedinaline Forms A, B, C, and a mixture of Forms B and D, under conditions of 40° C. and 75% relative humidity. For the studies on Form A, samples were taken at 8 days, 15 days, one month, 10 weeks, and 8 months. For the studies on Forms B, C, and a mixture of Forms B and D, samples were taken at 2, 4, 6, 8, and 10 weeks.

[3] = Bioavailability / pharmacokinetics study, single IV and PO administration; assay type: in vivo, Sprague-Dawley rats; conditions: for AUC(0-inf) / AUC(0-t) / Cmax / clearance / half-life / MRT inf / Vd / bioavailability / Tmax: Sprague-Dawley, rat, plasma; for AUC(0-inf) / AUC(0-t) / Cmax / clearance / half-life / MRT inf / Vd / bioavailability: 1 mg/kg; for MRT inf: read-out: MRT(0-∞); for Vd: read-out: Vz
Method: A study was performed to determine the pharmacokinetics parameters and bioavailability of Tacedinaline Form A in Sprague-Dawley Rats, following a single intravenous injection (IV) and oral administration (PO). Formulation: IV formulation: The test article was dissolved in 10% DMSO/45% PEG400/45% Saline to yield a final concentration of 0.5 mg/ml for intravenous injection. PO formulation: The test article was suspended in 0.5% methylcellulose in water to yield a final concentration of 0.2 mg/ml for oral administration. Collection Intervals: Three rats in each group were used for blood collection at each time point: Groups 1 and 2: Pre-dose and post-dose (5 min, 15 min, 30 min, 1 hour, 2 hours, 4 hours, 6 hours, 8 hours, and 24 hours). Analysis Procedure: The PK blood samples were centrifuged at approximately 8000 rpm for 6 minutes at 2-8° C. and the resulting plasma separated and stored frozen at approximately −80° C. (following separation, the plasma may be initially placed on ice prior to being stored in the −80° C. freezer). All the plasma samples were labeled with detailed information such as study number, animal number, matrix, time points of collection and date of collection. Pharmacokinetics Analysis: A standard set of parameters including Area Under the Curve (AUC(0-t) and AUC(0-∞)), elimination half-life (T1/2), maximum plasma concentration (Cmax), time to reach maximum plasma concentration (Tmax), clearance (CL), and volume of distribution (VZ) was calculated using noncompartmental analysis modules in FDA certified pharmacokinetic program WinNonlin Professional v6.1 (Pharsight, USA). Further, the bioavailability was estimated using the following formula: […]

[4] = Competitive slurry experiment / relative thermodynamic stability; assay type: physicochemical; conditions: for relative thermodynamic stability, rank order: from Examples 10A, 11 and 12; for thermodynamic stability relative to other forms (in words): slurry experiments (THF overnight; acetone 7 days), Examples 10A, 11, 12
Method: To a mixture of 161.3 mg of crystalline tacedinaline Forms B and D, was added 2 mL of acetone. The resulting slurry was stirred at ambient temperature for 7 days and filtered to give white solid.
A slurry containing 25.8 mg tacedinaline Form A, 25.8 mg of a mixture of tacedinaline Forms B and D, a few milligrams of tacedinaline Form B, and 0.5 mL of tetrahydrofuran (THF) was stirred overnight and filtered to give 38.6 mg of a white solid. The white solid was analyzed by XRPD and determined to be tacedinaline Form A.

[5] = Thermal stability relative to Form C; assay type: physicochemical
Method: As used herein, the term “DSC” refers to differential scanning calorimetry. Unless otherwise noted, DSC data disclosed herein were obtained using a TA Instruments 2920 instrument. Samples were prepared in crimped aluminum pans and kept under a flow of nitrogen during analysis. The heating rate was 10° C./minute.
As used herein, the term “TGA” refers to thermogravimetric analysis. Unless otherwise noted, TGA data disclosed herein were obtained using TA Instruments 2050 instrument. Samples were kept under a flow of nitrogen during analysis. The heating rate was 10° C./minute.

Compound: CC(=O)Nc1ccc(C(=O)Nc2ccccc2N)cc1 [B + D, 4-acetamido-N-(2-aminophenyl)benzamide]
- Solubility [1]: 20.8 µg/mL
- stability of the solid form (in words) ([2]; listed as mixture of Form B and Form D): more stable than Form C
- XRPD Result ([2]; pull time 2 weeks): B + D
- XRPD Result ([2]; pull time 4 weeks): B + D
- XRPD Result ([2]; pull time 6 weeks): B + D
- XRPD Result ([2]; pull time 8 weeks): B + D

Compound: CC(=O)Nc1ccc(C(=O)Nc2ccccc2N)cc1 [Form A, 4-(acetylamino)-N-(2-aminophenyl)benzamide]
- Solubility [1]: 17.6 µg/mL (≈ 65.4 µM)
- stability of the solid form (in words) [2]: stable, as no conversion was seen
- CL_F ([3]; PO 1 mg/kg, Animal No. 1): 4.5 mL/min/kg
- Vz_F ([3]; PO 1 mg/kg, Animal No. 1): 1.47 L/kg
- CL_F ([3]; PO 1 mg/kg, Animal No. 2): 4.17 mL/min/kg
- Vz_F ([3]; PO 1 mg/kg, Animal No. 2): 1.04 L/kg
- CL_F ([3]; PO 1 mg/kg, Mean): 4.33 mL/min/kg
- Vz_F ([3]; PO 1 mg/kg, Mean): 1.25 L/kg
- AUC(0-inf) ([3]; iv, IV 1 mg/kg, Animal No. 1): 3100 ng·h/mL
- AUC(0-t) ([3]; iv, IV 1 mg/kg, Animal No. 1): 3090 ng·h/mL
- Cmax ([3]; iv, IV 1 mg/kg, Animal No. 1): 799 ng/mL
- clearance ([3]; iv, IV 1 mg/kg, Animal No. 1): 5.33 mL/min/kg
- half-life ([3]; iv, IV 1 mg/kg, Animal No. 1): 2.81 h
- MRT inf ([3]; iv, IV 1 mg/kg, Animal No. 1): 3.46 h
- Vd ([3]; iv, IV 1 mg/kg, Animal No. 1): 1.31 L/kg
- AUC(0-inf) ([3]; iv, IV 1 mg/kg, Animal No. 2): 3010 ng·h/mL
- AUC(0-t) ([3]; iv, IV 1 mg/kg, Animal No. 2): 3010 ng·h/mL
- Cmax ([3]; iv, IV 1 mg/kg, Animal No. 2): 715 ng/mL
- clearance ([3]; iv, IV 1 mg/kg, Animal No. 2): 5.5 mL/min/kg
- half-life ([3]; iv, IV 1 mg/kg, Animal No. 2): 2.82 h
- MRT inf ([3]; iv, IV 1 mg/kg, Animal No. 2): 3.57 h
- Vd ([3]; iv, IV 1 mg/kg, Animal No. 2): 1.35 L/kg
- AUC(0-inf) ([3]; iv, IV 1 mg/kg, Mean): 3060 ng·h/mL
- AUC(0-t) ([3]; iv, IV 1 mg/kg, Mean): 3050 ng·h/mL
- Cmax ([3]; iv, IV 1 mg/kg, Mean): 757 ng/mL
- clearance ([3]; iv, IV 1 mg/kg, Mean): 5.5 mL/min/kg
- half-life ([3]; iv, IV 1 mg/kg, Mean): 2.81 h
- MRT inf ([3]; iv, IV 1 mg/kg, Mean): 3.52 h
- Vd ([3]; iv, IV 1 mg/kg, Mean): 1.33 L/kg
- bioavailability ([3]; oral, rats, read-out: bioavailability): 100%
- AUC(0-inf) ([3]; po, PO 1 mg/kg, Animal No. 1): 3730 ng·h/mL
- AUC(0-t) ([3]; po, PO 1 mg/kg, Animal No. 1): 3700 ng·h/mL
- Cmax ([3]; po, PO 1 mg/kg, Animal No. 1): 687 ng/mL
- half-life ([3]; po, PO 1 mg/kg, Animal No. 1): 3.81 h
- bioavailability ([3]; po, PO 1 mg/kg, Animal No. 1, read-out: F (Bioavailability)): 122%
- MRT inf ([3]; po, PO 1 mg/kg, Animal No. 1): 4.6 h
- AUC(0-inf) ([3]; po, PO 1 mg/kg, Animal No. 2): 4030 ng·h/mL
- AUC(0-t) ([3]; po, PO 1 mg/kg, Animal No. 2): 4020 ng·h/mL
- Cmax ([3]; po, PO 1 mg/kg, Animal No. 2): 781 ng/mL
- half-life ([3]; po, PO 1 mg/kg, Animal No. 2): 2.9 h
- bioavailability ([3]; po, PO 1 mg/kg, Animal No. 2, read-out: F (Bioavailability)): 132%
- MRT inf ([3]; po, PO 1 mg/kg, Animal No. 2): 4.06 h
- AUC(0-inf) ([3]; po, PO 1 mg/kg, Mean): 3880 ng·h/mL
- AUC(0-t) ([3]; po, PO 1 mg/kg, Mean): 3860 ng·h/mL
- Cmax ([3]; po, PO 1 mg/kg, Mean): 734 ng/mL
- half-life ([3]; po, PO 1 mg/kg, Mean): 3.35 h
- bioavailability ([3]; po, PO 1 mg/kg, Mean, read-out: F (Bioavailability)): 127%
- MRT inf ([3]; po, PO 1 mg/kg, Mean): 4.33 h
- Tmax ([3]; IV 1 mg/kg, Animal No. 1): 0.5 h
- Tmax ([3]; PO 1 mg/kg, Animal No. 1): 2 h
- relative thermodynamic stability, rank order [4]: A>D>B
- thermodynamic stability relative to other forms (in words) [4]: more thermodynamically stable, relative to tacedinaline Forms B, and D; also recorded: more thermodynamically stable under certain conditions relative to Forms B and D
- thermal stability relative to Form C (in words) [5]: improved thermal stability relative to tacedinaline Form C

Compound: CC(=O)Nc1ccc(C(=O)Nc2ccccc2N)cc1 [Form B, 4-(acetylamino)-N-(2-aminophenyl)benzamide]
- solubility in water compared with other forms (in words) [1]: superior to that of Forms A and D
- Solubility [1]: 42.6 µg/mL (≈ 158 µM)
- stability of the solid form (in words) [2]: more stable than Form C
- relative thermodynamic stability, rank order [4]: A>D>B
- thermal stability relative to Form C (in words) [5]: improved thermal stability relative to tacedinaline Form C

Compound: CC(=O)Nc1ccc(C(=O)Nc2ccccc2N)cc1 [Form C, 4-(acetylamino)-N-(2-aminophenyl)benzamide, reference compound]
- stability of the solid form (in words) [2]: converted to either Form D, or a mixture of Form D with some amount of Form A present
- XRPD Result ([2]; pull time 2 weeks): D + A
- XRPD Result ([2]; pull time 6 weeks): D + A
- XRPD Result ([2]; pull time 8 weeks): D + A

Compound: CC(=O)Nc1ccc(C(=O)Nc2ccccc2N)cc1 [Form D, 4-(acetylamino)-N-(2-aminophenyl)benzamide]
- relative thermodynamic stability, rank order [4]: A>D>B
- thermodynamic stability relative to other forms (in words) [4]: more thermodynamically stable under certain conditions relative to Form B
- thermal stability relative to Form C (in words) [5]: improved thermal stability relative to tacedinaline Form C
